The results in this text go back to US9120749B2, “Quinoline derivatives and MELK inhibitors containing the same” (ONCOTHERAPY SCIENCE, INC., priority 2010, dated 2015).

Like-named read-outs stand apart in the source and are kept apart here.

One test has as its target MELK (Homo sapiens, UniProt Q14680). Briefly: Kinase assay: MELK activity, phosphorylation of FITC-labeled histone H3 peptide measured by IMAP fluorescence polarization. The format is biochemical. The procedure, abridged: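 FP readout: FITC-histone H3 peptide phosphorylation, read 0.5 h (RT) after stopping with 3x volume of IMAP progressive binding solution. Final DMSO 1%.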
(In general: Polarisation of emitted light reports the rotation of a fluorescent probe.)

For another test, the system named is T47D cells. Briefly: Cell-based assay: anti-proliferative activity, Cell Counting Kit-8, 72 hours (T47D). The following applies: Homo sapiens, T47D, 72 h. The method, then: (§1) To evaluate the expression status of MELK in several cell lines, western blot analysis was performed using crude cell lysate collected from those cells. Anti-MELK antibody (clone 31, BD Biosciences) was used to visualize the expression.
(§2) Active candidate inhibitors against MELK were evaluated for their target-specific cytotoxicity using T47D, A549, BT-549, and HT-1197 cells was used for negative control. 100 micro-L of cell suspension was seeded onto 96-well microtiter plate (ViewPlate-96FTC, PerkinElmer). The initial cell concentration of T47D, A549, BT-549, and HT-1197 were 3,000 cells/well, 2,000 cells/well and 2,500 cells/well, respectively. Cellular growth was determined using Cell Counting Kit-8 (DOJINDO) at 72 hours after the exposure of the candidate inhibitors. […] Accurate IC50 values were calculated as described previously.

In the next test the test system is HT-1197 cells. Briefly: Cell-based assay: anti-proliferative activity, Cell Counting Kit-8, 72 hours (HT-1197, negative control without MELK expression). The conditions noted are these: Homo sapiens, HT1197, 72 h, HT1197 cells (negative control, no MELK expression), 72 hours. The method, then: as §1, §2
A further test relates to A549 cells. Briefly: Cell-based assay: anti-proliferative activity, Cell Counting Kit-8, 72 hours (A549). The following applies: Homo sapiens, A549, 72 h, 72 hours. The method, then: 100 micro-L of cell suspension was seeded onto 96-well microtiter plate (ViewPlate-96FTC, PerkinElmer). The initial cell concentration of T47D, A549, BT-549, and HT-1197 were 3,000 cells/well, 2,000 cells/well and 2,500 cells/well, respectively. Cellular growth was determined using Cell Counting Kit-8 (DOJINDO) at 72 hours after the exposure of the candidate inhibitors. […] Accurate IC50 values were calculated as described previously.

Where [1] appears, read: 50 micro-M ATP, FITC-labeled histone H3 peptide substrate, IMAP fluorescence polarization, read-out: IC50 (μM) (kinase assay).

Sequence of MELK (Q14680 whole entry, looked up): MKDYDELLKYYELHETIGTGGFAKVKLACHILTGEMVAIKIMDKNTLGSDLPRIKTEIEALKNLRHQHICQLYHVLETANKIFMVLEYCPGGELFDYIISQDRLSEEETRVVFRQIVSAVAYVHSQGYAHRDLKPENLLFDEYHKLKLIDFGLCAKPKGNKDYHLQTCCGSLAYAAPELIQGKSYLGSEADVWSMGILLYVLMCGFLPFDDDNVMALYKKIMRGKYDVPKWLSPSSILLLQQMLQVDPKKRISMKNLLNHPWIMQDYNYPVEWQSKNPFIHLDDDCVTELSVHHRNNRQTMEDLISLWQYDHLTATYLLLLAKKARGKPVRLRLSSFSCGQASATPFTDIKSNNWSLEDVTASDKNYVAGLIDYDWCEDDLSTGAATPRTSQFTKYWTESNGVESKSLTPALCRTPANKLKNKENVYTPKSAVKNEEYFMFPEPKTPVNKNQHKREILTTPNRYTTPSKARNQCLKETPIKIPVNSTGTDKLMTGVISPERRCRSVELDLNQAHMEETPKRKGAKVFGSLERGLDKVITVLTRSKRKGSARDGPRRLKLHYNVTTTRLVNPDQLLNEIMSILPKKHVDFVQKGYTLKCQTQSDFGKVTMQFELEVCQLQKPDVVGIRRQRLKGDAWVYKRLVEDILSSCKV

As for `CN(C)C[C@H]1CC[C@H](Nc2c(C(=O)C3CC3)cnc3ccc(-c4cnc(C#N)nc4)cc23)CC1` [Example 426], the concentration for half-maximal inhibition (IC50) (in general, the concentration at which inhibition is half-maximal) on MELK (setting [1]) was found to be 0.0025 µM; in the test on T47D cells, 0.43 µM; in the test with HT-1197 cells, 3.7 µM; in the test with A549 cells, 1.5 µM.

With `CN1CCN(Cc2ccc(Nc3c(C(=O)C4CC4)cnc4ccc(-c5ccc(O)c(Cl)c5)cc34)cc2)CC1` [Example 406, (6-(3-chloro-4-hydroxyphenyl)-4-(4-((4-methylpiperazin-1-yl)methyl)phenylamino)quinolin-3-yl)(cyclopropyl)methanone], the half-inhibitory concentration (IC50) at MELK (setting [1]) is 0.019 µM; in the test with T47D cells, 1.3 µM; with HT-1197 cells it was 3.4 µM; in the test with A549 cells, 0.49 µM.

On to `CN(C)CC1CCN(c2c(C(=O)C3CC3)cnc3ccc(-c4ccc5[nH]ccc5c4)cc23)CC1` [Example 453], for which the IC50 turned out to be 0.094 µM at MELK (setting [1]), 1.2 µM in the test on T47D cells, 2.3 µM in the test on HT-1197 cells and 0.48 µM with A549 cells.

For the compound `CN1CCCC1c1ccc(Nc2c(C(=O)C3CC3)cnc3ccc(-c4cc(F)c(O)c(Cl)c4)cc23)nc1` (stereo not shown) [Example 443], the IC50 was 0.043 µM at MELK (setting [1]), 7.1 µM in the test on T47D cells, 10 µM in the test with HT-1197 cells and 6.6 µM in the test on A549 cells.

For the compound `COc1cc(-c2ccc3ncc(S(C)(=O)=O)c(Nc4ccc(CN(C)C)cc4)c3c2)cc(Cl)c1O` [Example 410, 2-chloro-4-(4-(4-((dimethylamino)methyl)phenylamino)-3-(methylsulfonyl)quinolin-6-yl)-6-methoxyphenol], the IC50 at MELK (setting [1]) came out at 0.0068 µM; with T47D cells, 0.58 µM; with HT-1197 cells it was 6.2 µM; with A549 cells, 1.2 µM.

As for `O=C(c1cnc2ccc(-c3cc(F)c(O)c(Cl)c3)cc2c1N1CCN(CCN2CCCC2)C(=O)C1)C1CC1` [Example 440, 4-(6-(3-chloro-5-fluoro-4-hydroxyphenyl)-3-(cyclopropanecarbonyl)quinolin-4-yl)-1-(2-(pyrrolidin-1-yl)ethyl)piperazin-2-one], the IC50 was 0.0044 µM on MELK (setting [1]), 1.1 µM in the test with T47D cells, 10 µM in the test with HT-1197 cells and 5.1 µM in the test with A549 cells.

Turning to `COc1cc(-c2ccc3ncc(C(=O)C4CC4)c(Nc4ccc(CN(C)C)cn4)c3c2)cc(Cl)c1O` [Example 429, (6-(3-chloro-4-hydroxy-5-methoxyphenyl)-4-(5-((dimethylamino)methyl)pyridin-2-ylamino)quinolin-3-yl)(cyclopropyl)methanone], the IC50 on MELK (setting [1]) came out at 0.019 µM; in the test on T47D cells, 3.8 µM; with HT-1197 cells, 19 µM; in the test on A549 cells, 5.1 µM.

Take `CN(C)CC1CCN(c2c(C(=O)C3CCCC3)cnc3ccc(-c4ccc(O)c(Cl)c4)cc23)CC1` [Example 389, (6-(3-chloro-4-hydroxyphenyl)-4-(4-((dimethylamino)methyl)piperidin-1-yl)quinolin-3-yl)(cyclopentyl)methanone]: the IC50 on MELK (setting [1]) was found to be 0.031 µM; in the test with T47D cells, 2.9 µM; in the test with HT-1197 cells, 6.9 µM; with A549 cells, 1.7 µM.

For `CN(C)Cc1ccc(Nc2c(C(=O)C3CCCC3)cnc3ccc(-c4ccc(O)c(Cl)c4)cc23)cc1` [Example 387, (6-(3-chloro-4-hydroxyphenyl)-4-(4-((dimethylamino)methyl)phenylamino)quinolin-3-yl)(cyclopentyl)methanone], the IC50 on MELK (setting [1]) came to 0.089 µM; with T47D cells it was 1.6 µM; with HT-1197 cells, 1.9 µM; in the test on A549 cells, 1 µM.

As for `O=C(c1cnc2ccc(-c3ccc(O)c(Cl)c3)cc2c1N1CCN(CCN2CCCC2)CC1)C1CC1` [Example 403, (6-(3-chloro-4-hydroxyphenyl)-4-(4-(2-(pyrrolidin-1-yl)ethyl)piperazin-1-yl)quinolin-3-yl)(cyclopropyl)methanone], the IC50 at MELK (setting [1]) amounted to 0.011 µM; in the test with T47D cells it was 4.5 µM; in the test on HT-1197 cells, 10 µM; in the test on A549 cells, 1.3 µM.

With `CN(C)CC1CCN(c2c(C(=O)C3CC3)cnc3ccc(-c4ccc5cc(O)ccc5c4)cc23)CC1` [Example 449], the IC50 is 0.014 µM on MELK (setting [1]), 1.8 µM in the test on T47D cells, 3.3 µM in the test on HT-1197 cells and 0.64 µM in the test with A549 cells.

On to `N#Cc1cnc2ccc(-c3cc(F)c(O)c(Cl)c3)cc2c1N1CCC(CN2CCCC2)CC1` [Example 434, 6-(3-chloro-5-fluoro-4-hydroxyphenyl)-4-(4-(pyrrolidin-1-ylmethyl)piperidin-1-yl)quinoline-3-carbonitrile], for which the 50% inhibitory concentration (IC50) on MELK (setting [1]) turned out to be 0.035 µM; with T47D cells, 0.45 µM; in the test with HT-1197 cells it was 10 µM; with A549 cells it was 1.1 µM.

Regarding `CN(C)Cc1ccc(Nc2c(C(=O)C3CC3)cnc3ccc(-c4cnc(C#N)nc4)cc23)nc1` [Example 439, 5-(3-(cyclopropanecarbonyl)-4-(5-((dimethylamino)methyl)pyridin-2-ylamino)quinolin-6-yl)pyrimidine-2-carbonitrile], the IC50 at MELK (setting [1]) was found to be 0.058 µM; with T47D cells, 0.61 µM; in the test with HT-1197 cells, 3.6 µM; with A549 cells, 4 µM.

As to `CN1CCN(c2ccc(-c3c(C(=O)C4CC4)cnc4ccc(-c5cc(Cl)c(O)c(Cl)c5)cc34)cc2)CC1` [Example 430, cyclopropyl(6-(3,5-dichloro-4-hydroxyphenyl)-4-(4-(4-methylpiperazin-1-yl)phenyl)quinolin-3-yl)methanone], the concentration for half-maximal inhibition (IC50) was 0.033 µM on MELK (setting [1]), 1.3 µM in the test on T47D cells, 9.2 µM in the test with HT-1197 cells and 2.7 µM in the test on A549 cells.

Regarding `CN(C)Cc1ccc(Nc2c(C#N)cnc3ccc(-c4cc(F)c(O)c(Cl)c4)cc23)cc1` [Example 432, 6-(3-chloro-5-fluoro-4-hydroxyphenyl)-4-(4-((dimethylamino)methyl)phenylamino)quinoline-3-carbonitrile], the IC50 is 0.056 µM on MELK (setting [1]), 0.98 µM in the test on T47D cells, 4.9 µM with HT-1197 cells and 1.1 µM in the test on A549 cells.

In the case of `CS(=O)(=O)c1cnc2ccc(-c3cc(F)c(O)c(Cl)c3)cc2c1N1CCC(CN2CCCC2)CC1` [Example 407, 2-chloro-6-fluoro-4-(3-(methylsulfonyl)-4-(4-(pyrrolidin-1-ylmethyl)piperidin-1-yl)quinolin-6-yl)phenol], the IC50 at MELK (setting [1]) turned out to be 0.0051 µM; with T47D cells it was 0.75 µM; in the test with HT-1197 cells it was 6.5 µM; with A549 cells it was 3.8 µM.

On to `CN(C)[C@H]1CC[C@H](Nc2c(C#N)cnc3ccc(-c4cc(F)c(O)c(Cl)c4)cc23)CC1` [Example 446], for which the IC50 on MELK (setting [1]) was determined as 0.0027 µM; with T47D cells, 0.61 µM; in the test with HT-1197 cells it was 10 µM; in the test on A549 cells it was 8.4 µM.

`CN(C)CC1CCN(c2c(C(=O)C3CCCC3)cnc3ccc(-c4cc(F)c(O)c(Cl)c4)cc23)CC1` [Example 384, (6-(3-chloro-5-fluoro-4-hydroxyphenyl)-4-(4-((dimethylamino)methyl)piperidin-1-yl)quinolin-3-yl)(cyclopentyl)methanone]: the IC50 came to 0.0046 µM on MELK (setting [1]), 2 µM in the test with T47D cells, 4 µM in the test on HT-1197 cells and 1.9 µM with A549 cells.

With `COc1cc(-c2ccc3ncc(C(=O)C4CC4)c(N4C[C@@H]5C[C@H]4CN5C(=O)CN(C)C)c3c2)cc(Cl)c1O` [Example 456], the concentration for half-maximal inhibition (IC50) against MELK turned out to be 0.0078 µM; in the test on T47D cells, 3.8 µM; with HT-1197 cells, 29 µM; in the test with A549 cells, 4.2 µM.

With `CN1CCN(C(=O)CNc2c(C(=O)C3CC3)cnc3ccc(-c4ccc(O)c(Cl)c4)cc23)CC1` [Example 393, 2-(6-(3-chloro-4-hydroxyphenyl)-3-(cyclopropanecarbonyl)quinolin-4-ylamino)-1-(4-methylpiperazin-1-yl)ethanone], the IC50 on MELK (setting [1]) is 0.095 µM; in the test with T47D cells it was 2.6 µM; in the test on A549 cells it was 2.2 µM.

Take `COc1cc(-c2ccc3ncc(C(C)=O)c(Nc4ccc(CN5CCCC5)cc4)c3c2)cc(Cl)c1O` [Example 419, 1-(6-(3-chloro-4-hydroxy-5-methoxyphenyl)-4-(4-(pyrrolidin-1-ylmethyl)phenylamino)quinolin-3-yl)ethanone]: the half-maximal inhibitory concentration (IC50) in the test on T47D cells amounted to 0.99 µM; in the test on HT-1197 cells, 5.1 µM; in the test with A549 cells, 0.84 µM.

As to `Cc1cc(O)c(Cl)cc1-c1ccc2ncc(C(=O)C3CC3)c(N3CCC(CN(C)C)CC3)c2c1` [Example 448], the results for the half-inhibitory concentration (IC50) with T47D cells, in the test with HT-1197 cells and in the test with A549 cells were 2 µM, 7.9 µM and 1.7 µM, respectively.

Take `COc1cc(-c2ccc3ncc(C(=O)C4CC4)c(Nc4ccc(C5CCCN5C)cn4)c3c2)cc(Cl)c1O` (stereo not shown) [Example 444]: the half-inhibitory concentration (IC50) in the test on T47D cells worked out at 6.8 µM; in the test on HT-1197 cells, 10 µM; in the test on A549 cells, 7.6 µM.

Regarding `CC(=O)c1cnc2ccc(-c3cnc(C#N)nc3)cc2c1Nc1ccc(CN(C)C)cc1` [Example 414, 5-(3-acetyl-4-(4-((dimethylamino)methyl)phenylamino)quinolin-6-yl)pyrimidine-2-carbonitrile], the IC50 was determined as 0.24 µM in the test with T47D cells, 0.8 µM in the test with HT-1197 cells and 1.5 µM with A549 cells.
